In patent publication US5614623A, “Diastereomers of 1-(isopropoxycarbonyloxy)ethyl 3-cephem-4-carboxylate and processes for their preparation” (Hoechst Aktiengesellschaft, priority 1991, dated 1997):
Like-named read-outs stand apart in the source and are kept apart here.

Key:
[1] = various animal species and man; cited from earlier work
[2] = tested on: enzymes endogenous to the body; conditions: after absorption, by enzymes endogenous to the body; cited from earlier work
[3] = stability under the conditions of column chromatography; type: physicochemical; conditions: both diastereomers and the diastereomer mixture
[4] = recovery rate of the cephalosporin with free carboxyl group in the urine of dogs after oral administration of the diastereomeric prodrug ester (enteral absorption); type: in vivo; conditions: for bioavailability: comparison between the diastereomers / with the diastereomer mixture of cefpodoxime proxetil
[5] = diastereomers; T. Nishimura et al., The Journal of Antibiotics 40, 81-90 (1987); cited from earlier work

For `COCC1=C(C(=O)OC(C)OC(=O)OC(C)C)N2C(=O)[C@@H](NC(=O)/C(=N\OC)c3csc(N)n3)[C@H]2SC1` (mixture of isomers) [cefpodoxime proxetil, 1-(Isopropoxycarbonyloxy)ethyl (6R, 7R)-7-[2-(2-aminothiazol-4-yl)-2-(Z)-(methoxyimino)acetamido]-3-methoxymethyl-3-cephem-4-carboxylate (diastereomer mixture, Cefpodoxime Proxetil)], the enteral absorption [1] is given as “readily enterally absorbed”, the “cleavage to the antibiotically active cephalosporin having a free carboxyl group” value [2] is given as “rapidly and completely cleaved” and the stability [3] is given as “unstable”.
For `COCC1=C(C(=O)OC(C)OC(=O)OC(C)C)N2C(=O)[C@@H](NC(=O)/C(=N\OC)c3csc(N)n3)[C@H]2SC1` (single isomer, unassigned; diastereomer b) [Example 8], the enteral absorption ([4]; as shown in Table 1) was “increased enteral absorption”, the bioavailability ([4]; listed as the more absorbable diastereomer) was “higher bioavailability than the diastereomer mixture” and the bioavailability ([4]; listed as the more polar of the two diastereomers) was “higher bioavailability”.
For `CC(OC(=O)OC1CCCCC1)OC(=O)C1=C(CSc2nnnn2CCN(C)C)CS[C@@H]2[C@H](NC(=O)Cc3csc(N)n3)C(=O)N12` (stereo partly shown) [cefotiam hexetil], the “effect of configuration in the 1-position on the level of enteral absorption” value [5] is given as “no effect on the level of enteral absorption”.
